The record followed here is patent US7897781B2, “Cold menthol receptor-1 antagonists” (Janssen Pharmaceutica NV, priority 2006, dated 2011).

Values joined by “and” are separate entries in the source; they are usually repeats but may differ in a detail not shown here. Identical values can stand only once.

T1 sequence (Q1A7N1 1-1104): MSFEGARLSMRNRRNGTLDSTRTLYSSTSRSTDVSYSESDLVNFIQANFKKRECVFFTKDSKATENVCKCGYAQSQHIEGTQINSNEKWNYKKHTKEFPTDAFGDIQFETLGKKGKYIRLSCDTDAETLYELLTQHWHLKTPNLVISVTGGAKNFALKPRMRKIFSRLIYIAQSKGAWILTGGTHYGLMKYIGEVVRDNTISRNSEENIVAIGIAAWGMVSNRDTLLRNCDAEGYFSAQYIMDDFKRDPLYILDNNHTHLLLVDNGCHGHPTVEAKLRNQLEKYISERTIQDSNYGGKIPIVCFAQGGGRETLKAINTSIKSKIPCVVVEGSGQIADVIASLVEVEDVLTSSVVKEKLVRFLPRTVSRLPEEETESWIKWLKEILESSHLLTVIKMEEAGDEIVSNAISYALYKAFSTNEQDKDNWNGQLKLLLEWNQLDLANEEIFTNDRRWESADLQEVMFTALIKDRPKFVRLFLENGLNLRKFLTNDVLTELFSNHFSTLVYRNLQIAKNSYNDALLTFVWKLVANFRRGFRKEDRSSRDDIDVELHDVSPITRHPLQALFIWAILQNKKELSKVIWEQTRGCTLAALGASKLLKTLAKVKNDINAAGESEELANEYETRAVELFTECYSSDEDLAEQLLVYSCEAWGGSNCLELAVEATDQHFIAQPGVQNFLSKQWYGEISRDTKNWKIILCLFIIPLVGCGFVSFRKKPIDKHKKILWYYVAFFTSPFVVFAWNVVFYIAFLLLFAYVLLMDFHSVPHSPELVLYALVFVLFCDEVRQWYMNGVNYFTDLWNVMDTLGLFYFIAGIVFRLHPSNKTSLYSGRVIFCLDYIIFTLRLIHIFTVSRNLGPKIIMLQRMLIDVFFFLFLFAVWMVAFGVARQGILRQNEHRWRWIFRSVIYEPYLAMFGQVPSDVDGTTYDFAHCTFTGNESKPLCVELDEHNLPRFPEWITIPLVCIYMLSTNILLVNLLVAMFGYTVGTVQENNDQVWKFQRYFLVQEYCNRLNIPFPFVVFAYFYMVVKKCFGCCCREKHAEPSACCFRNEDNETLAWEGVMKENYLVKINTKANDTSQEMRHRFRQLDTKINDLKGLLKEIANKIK

The first experiment concerns the target T1, canine TRPM8 (Canis lupus familiaris, UniProt Q1A7N1).
T1 construct: expressed in transfected cells
Kind of experiment: In vitro canine TRPM8 functional assay (Ca2+-sensitive dye, icilin activation; Table 4 TRPM8 Screening). Type of experiment: cell-based. To be noted: compound at 0.5 μM; HEK293 cells expressing canine TRPM8, icilin activation. How it is done: The functional activity of compounds of Formula (I) was determined by measuring changes in intracellular calcium concentration using a Ca^2+-sensitive fluorescent dye. The changes in fluorescent signal were monitored by a fluorescence plate reader, either a FLIPR™ (Molecular Devices) or FDSS (Hamamatsu).
HEK293 cells stably expressing canine TRPM8 were routinely grown as monolayers in Dulbecco's minimum essential medium supplemented with 10% FBS, 1 mM L-glutamine, 100 units/mL penicillin, 100 ug/mL streptomycin and 400 μg/mL G418. Cells were maintained in 5% CO2 at 37° C. At 24 hrs prior to assay, cells were seeded in clear-base poly-D-lysine coated 384-well plates (BD Biosciences, NJ, USA) at a density of 5,000 cells per well in culture medium and grown overnight in 5% CO2 at 37° C. On assay day, growth media was removed and cells were loaded with Calcium 3 Dye (Molecular Devices) for 35 min at 37° C., under 5% CO2 and then for 25 min at room temperature and atmosphere. Subsequently, cells were tested for agonist-induced increases in intracellular Ca^2+ levels using FLIPR™ or FDSS. Cells were challenged with a compound of Formula (I) (at varying concentrations) and intracellular Ca^2+ was measured for 5 min prior to the addition of icilin to all wells to achieve a final concentration which produces approximately an 80% maximal response.
Basal FI was subtracted prior to normalizing data to percent of maximal response. Curves were generated using the average of quadruplicate wells for each data point, were analyzed using nonlinear regression of either sigmoidal dose response or sigmoidal dose response (variable slope). Finally, the EC50 and IC50 values were calculated with the best-fit dose curve determined by GraphPad Prism.
Consider `CCOP(=O)(OCC)C(Cc1cc(C(F)(F)F)cc(C(F)(F)F)c1)c1sc2ccccc2c1Cl` (racemic) [Cpd 282], for which the “% I (0.5 μM)” value is 100%.
Regarding `CC(C)OP(=O)(OC(C)C)C(Cc1cccc(O)c1)c1sc2ccccc2c1Br` (stereo not drawn) [Cpd 325], the “% I (0.5 μM)” value turned out to be 97%.
Take `CC(C)OP(=O)(OC(C)C)[C@H](Cc1ccc(F)c(C(F)(F)F)c1)c1sc2ccccc2c1Br` [Cpd 243, (R)-[1-(3-Bromo-benzo[b]thiophen-2-yl)-2-(4-fluoro-3-trifluoromethylphenyl)-ethyl]-phosphonic acid diisopropyl ester]: the “% I (0.5 μM)” value stood at 64%.
On the same count and under the same terms, the same measure for `CC(C)OP(=O)(OC(C)C)C(Cc1cc(C(F)(F)F)cc(C(F)(F)F)c1)c1sc2ccccc2c1Cl` (racemic) [Cpd 171]: 95%; for `CCOP(=O)(OCC)C(Cc1ccc(F)c(F)c1)c1sc2ccccc2c1-c1cccc(C(=O)OC)c1` (stereo not drawn) [Cpd 219]: 68%.
Take `CCOP(=O)(OCC)C(Cc1cc(O)cc(O)c1)c1sc2ccccc2c1Br` (stereo not drawn) [Cpd 322]: the “% I (0.5 μM)” value is on record as 45%.
As for `CCOP(=O)(OCC)C(Cc1ccc(OC)c(C(F)(F)F)c1)c1sc2ccccc2c1Cl` (racemic) [Cpd 292], the “% I (0.5 μM)” value is given as 99%.
Same read-out and setting: next, `CC(C)OP(=O)(OC(C)C)C(Cc1c(F)c(F)c(O)c(F)c1F)c1sc2ccccc2c1Br` (racemic) [Cpd 229]: 95%; `COCCOCCOP(=O)(OCCOCCOC)C(Cc1ccc(F)c(F)c1)c1sc2ccccc2c1Br` (stereo not drawn) [Cpd 210]: 62%.
`CC(=O)OCCOP(=O)(OCCOC(C)=O)C(Cc1ccc(F)c(F)c1)c1sc2ccccc2c1Br` (racemic) [Cpd 213]: the “% I (0.5 μM)” value worked out at 100%.
As for `CC(C)OP(=O)(OC(C)C)C(Cc1ccc(O)c(F)c1)c1sc2ccccc2c1Br` (stereo not drawn) [Cpd 227], the “% I (0.5 μM)” value is given as 52%.
In the case of “(R)-[1-(3-Bromo-benzo[b]thiophen-2-yl)-2-(4-trifluoromethoxy-phenyl)ethyl]-phosphonic acid diisopropyl ester [Cpd 237]”, the “% I (0.5 μM)” value is 96% and 70%.
On to `CCOP(=O)(OCC)C(Cc1cc(C(F)(F)F)ccc1Cl)c1sc2ccccc2c1Cl` (stereo not drawn) [Cpd 274], for which the “% I (0.5 μM)” value worked out at 95%.
Same read-out and setting: the same measure for `CCOP(=O)(OCC)C(Cc1ccc(F)c(F)c1)c1sc2ccccc2c1-c1ccccc1F` (racemic) [Cpd 216]: 100%; for `CC(C)OP(=O)(OC(C)C)C(Cc1ccc(F)c(F)c1)c1sc2ncccc2c1Br` (racemic) [Cpd 207]: 99%.
Still for that read-out and setting: the same measure for `CC(C)OP(=O)(OC(C)C)C(Cc1cc(O)c(Cl)cc1F)c1sc2ccccc2c1Br` (racemic) [Cpd 232]: 99%.
With `CCOP(=O)(OCC)C(Cc1cc(OC)c(Cl)cc1F)c1sc2ccccc2c1Br` (racemic) [Cpd 164], the “% I (0.5 μM)” value was found to be 94%.
Consider `CCOP(=O)(OCC)C(Cc1ccc(O)c(C(F)(F)F)c1)c1sc2ccccc2c1Br` (stereo not drawn) [Cpd 233], for which the “% I (0.5 μM)” value amounted to 70%.
Regarding `CC(C)OP(=O)(OC(C)C)C(Cc1cccc(C(F)(F)F)c1Cl)c1sc2ccccc2c1Cl` (stereo not drawn) [Cpd 177], the “% I (0.5 μM)” value is given as 96%.
As to `CC(C)OP(=O)(OC(C)C)C(Cc1cc(C(F)(F)F)ccc1Cl)c1sc2ccccc2c1Cl` (stereo not drawn) [Cpd 178], the “% I (0.5 μM)” value is 79%.
For the compound `CCOP(=O)(OCC)C(Cc1cccc(C(F)(F)F)c1)c1sc2ccccc2c1Br` (stereo not drawn) [Cpd 141], the “% I (0.5 μM)” value is recorded as 100%.
As to `CC(C)OP(=O)(OC(C)C)C(Cc1ccc(S(C)(=O)=O)cc1)c1sc2ccccc2c1Br` (stereo not drawn) [Cpd 252], the “% I (0.5 μM)” value was 44%.

The experiment is the same for the next values; noted with them: compound at 0.5 μM; HEK293 cells expressing canine TRPM8, icilin activation; read-out: % I (0.5 μM).
As for `CC(C)OP(=O)(OC(C)C)C(Cc1ccc(F)c(C(F)(F)F)c1)c1c(Br)c2ccccc2n1C(=O)OC(C)(C)C` (stereo not drawn) [Cpd 327, 3-Bromo-2-[1-(diisopropoxy-phosphoryl)-2-(4-fluoro-3-trifluoromethyl-phenyl)-ethyl]-indole-1-carboxylic acid tert-butyl ester], the inhibition at 0.5 µM was 44%.

Staying with this experiment, now noted: compound at 1 μM; HEK293 cells expressing canine TRPM8, icilin activation.
Take `CCOP(=O)(OCC)C(Cc1ccc(F)cc1Cl)c1sc2ccccc2c1C` (stereo not drawn) [Cpd 27]: the “% I (1 μM)” value came to 99%.
Take `CC(C)OP(=O)(OC(C)C)C(Cc1ccc(F)c(F)c1)c1sc2ccccc2c1Br` (stereo not drawn) [Cpd 15, [1-(3-Bromo-benzo[b]thiophen-2-yl)-2-(3,4-difluoro-phenyl)ethyl]-phosphonic acid diisopropyl ester]: the “% I (1 μM)” value was 100% and 103%.
Same read-out and setting: next, `CCOP(=O)(OCC)C(Cc1cc(C(F)(F)F)cc(C(F)(F)F)c1)c1cc2ccccc2s1` (stereo not drawn) [Cpd 96]: 92%; `CCOP(=O)(OCC)C(Cc1ccc(F)c(F)c1)c1cc2ccccc2o1` (stereo not drawn) [Cpd 265]: 95%.
On to `Cc1c(C(Cc2ccc(F)c(F)c2)P(=O)(OCC(C)(C)C)OCC(C)(C)C)sc2ccccc12` (stereo not drawn) [Cpd 53, [2-(3,4-Difluoro-phenyl)-1-(3-methyl-benzo[b]thiophen-2-yl)ethyl]-phosphonic acid bis-(2,2-dimethyl-propyl) ester], for which the “% I (1 μM)” value is recorded as 97%.
On to “[2-(3,4-Difluoro-phenyl)-1-(3-methyl-benzo[b]thiophene-2-yl)-ethyl]-methyl-phosphonic acid ethyl ester [Cpd 30]”, for which the “% I (1 μM)” value is 100% and 99%.
Same read-out and setting: the same measure for `CCOP(=O)(OCC)C(Cc1cc(F)cc(F)c1Cl)c1sc2ccccc2c1C` (stereo not drawn) [Cpd 28]: 100%; for `CCOP(=O)(Cc1cc2ccccc2s1)OCc1ccccc1Br` (stereo not drawn) [Cpd 110]: 11%; for “[2-(3,4-Difluoro-phenyl)-1-(3-methyl-benzo[b]thiophene-2-yl)-ethyl]-methyl-phosphonic acid ethyl ester [Cpd 106]”: 32%.
For the compound `COP(=O)(OC)C(Cc1ccc(F)c(F)c1)c1sc2ccccc2c1Br` (stereo not drawn) [Cpd 201], the “% I (1 μM)” value stood at 100%.
For the compound `CCOP(=O)(OCC)C(Cc1ccccc1C(F)(F)F)c1sc2ccccc2c1C` (stereo not drawn) [Cpd 59], the “% I (1 μM)” value is 99%.
Still for that read-out and setting: the same measure for `CCOP(=O)(OCC)C(Cc1ccccc1Br)c1sc2ccccc2c1C` (stereo not drawn) [Cpd 66]: 100%.
For the compound `Cc1c(C(Cc2ccc(F)c(F)c2)P(=O)(OC(C)C)OC(C)C)sc2ncccc12` (stereo not drawn) [Cpd 34, [2-(3,4-Difluoro-phenyl)-1-(3-methyl-thieno[2,3-b]pyridin-2-yl)-ethyl]-phosphonic acid diisopropyl ester], the “% I (1 μM)” value was 101, 101%.
Still for that read-out and setting: next, `CCOP(=O)(OCC)C(Cc1cc2c(cc1Cl)OCO2)c1sc2ccccc2c1C` (stereo not drawn) [Cpd 71]: 98%; `CC(C)OP(=O)(OC(C)C)C(Cc1cc(C(F)(F)F)cc(Cl)c1F)c1cc2ccccc2s1` (stereo not drawn) [Cpd 126]: 100%; `CCOP(=O)(OCC)C(Cc1cc(C(F)(F)F)ccc1C(F)(F)F)c1sc2ccccc2c1C` (stereo not drawn) [Cpd 113]: 25%.
As for `CCOP(=O)(OCC)C(Cc1ccc(Br)cc1)c1cc2ccccc2s1` (stereo not drawn) [Cpd 70], the “% I (1 μM)” value is on record as 82%.
In the case of `CCOP(=O)(Cc1cc2ccccc2s1)OCc1ccccc1Cl` (racemic) [Cpd 105], the “% I (1 μM)” value was found to be 48%.
Still for that read-out and setting: next, `CCOP(=O)(OCC)C(Cc1ccc(F)c(F)c1)c1c(C)c2ccccc2[s+]1[O-]` (stereo not drawn) [Cpd 118]: 23%.
Same read-out and setting: next, `CCOP(=O)(OCC)C(Cc1ccc(F)c(F)c1)C1=C(C)c2ccccc2S1(=O)=O` (stereo not drawn) [Cpd 88, [2-(3,4-Difluoro-phenyl)-1-(3-methyl-1,1-dioxo-1H-1λ^6-benzo-[b]thiophen-2-yl)-ethyl]-phosphonic acid diethyl ester]: 89%.
Still for that read-out and setting: the same measure for `CCOP(=O)(OCC)C(Cc1ccccc1Cl)c1sc2ccccc2c1C` (stereo not drawn) [Cpd 48]: 100%.
Turning to `CC(C)OP(=O)(OC(C)C)C(Cc1cccc(C(F)(F)F)c1)c1cc2ccccc2s1` (stereo not drawn) [Cpd 69], the “% I (1 μM)” value worked out at 99%.
Still for that read-out and setting: the same measure for `CCOP(=O)(OCC)C(Cc1ccc(F)cc1Cl)c1cc2ccccc2s1` (stereo not drawn) [Cpd 98]: 79%.
Turning to `CCOP(=O)(Cc1cc2ccccc2s1)OCc1ccccc1` (stereo not drawn) [Cpd 111], the “% I (1 μM)” value is listed as 14%.
Consider `CCOP(=O)(OCC)C(Cc1cccc(F)c1F)c1sc2ccccc2c1C` (stereo not drawn) [Cpd 10], for which the “% I (1 μM)” value worked out at 100%.
With `CCOP(=O)(OCC)C(Cc1ccc(F)c(F)c1)c1oc2cccc(F)c2c1Br` (racemic) [Cpd 206], the “% I (1 μM)” value is listed as 100%.
On the same count and under the same terms, next, `CCOP(=O)(OCC)C(Cc1cccc(C(F)(F)F)c1)c1cc2ccccc2s1` (stereo not drawn) [Cpd 39]: 100%; `CCOP(=O)(OCC)C(Cc1ccccc1OC(F)(F)F)c1sc2ccccc2c1C` (stereo not drawn) [Cpd 61]: 100%.
On to `CC(C)OP(=O)(OC(C)C)C(Cc1ccccc1F)c1sc2cccc(Br)c2c1Br` (stereo not drawn) [Cpd 198], for which the “% I (1 μM)” value was 98%.
With `CCOP(=O)(OCC)C(Cc1ccc(C(F)(F)F)c(F)c1)c1cc2ccccc2s1` (stereo not drawn) [Cpd 58], the “% I (1 μM)” value amounted to 100%.

The experiment is the same for the next values; noted with them: compound at 5 μM; HEK293 cells expressing canine TRPM8, icilin activation.
Consider `CCOP(=O)(Cc1cc2ccccc2s1)OCc1ccc(F)cc1` (stereo not drawn) [Cpd 107], for which the “% I (5 μM)” value worked out at 99%.
On the same count and under the same terms, the same measure for `CCOP(=O)(Cc1cc2ccccc2s1)OCc1ccccc1Br` (stereo not drawn) [Cpd 110]: 96%; for `CCOP(=O)(OCC)C(Cc1ccc(Br)cc1)c1cc2ccccc2s1` (stereo not drawn) [Cpd 70]: 99%; for `CCOP(=O)(Cc1cc2ccccc2s1)OCc1ccccc1Cl` (racemic) [Cpd 105]: 100%.
